Holding throughout (type): cell-based
The subject of experiment [1] is Escherichia coli ATCC 8099. In words: MIC by broth microdilution, Escherichia coli. Conditions: for MIC: Escherichia coli, ATCC8099, final compound (after hydrolysis), 96-well two-fold dilution, 37° C., 24 hours; for antibacterial effect on Escherichia coli before versus after hydrolysis: before vs after hydrolysis. How it is done:
(§1) The antibacterial activity of the tylosin derivative Ia and the antibacterial activity of the tylosin derivative Ib of the present invention were determined by using the broth microdilution method with tylosin as a positive control. A broth culture medium was added into a 96-well plate, a prepared compound solution was diluted in a trace two-fold decreasing concentration, and then was inoculated with an appropriate amount of bacterial solution. After incubation for 24 hours, the minimum inhibitory concentration of the compound was observed. The culture medium used in the experiment was CAMHB broth and CAMHB+5% defibrillated sheep blood broth. The preserved bacteria strain was inoculated into a serum plate medium and cultured at 37° C. for 16-18 hours. An appropriate amount of bacteria after the completion of subculture and saline were placed into a turbidimetric tube and calibrated to the McFarland standard with a McFarland turbidimeter. The bacterial suspension was diluted 10 times with saline to prepare test bacterial solutions of certain concentrations (5×10^5 to 5×10^6 cfu/mL) for later use. Tylosin and the compounds obtained in the examples were dissolved in methanol to the desired concentration of each compound (1.0 mg/mL), stored in sterilized brown vials, stoppered, and sealed for later use. The working concentration range against Gram-negative bacteria was 0.25 μg/mL to 128 μg/mL; and the working concentration range against Gram-positive bacteria was […] to 50 μg/mL. The 96-well plate micro double dilution method was used. […] Finally, the prepared bacterial solution (of a concentration of 5×10^5 to 5×10^6 cfu/mL) was added into the first well to the eleventh well, and the twelfth well was not added with the bacterial solution to serve as a blank control. The 96-well plate was placed in a 37° C. incubator, cultured in a static state for 24 hours to observe the bacterial growth in each well. The solution in the well that inhibited bacterial growth was transparent, and the solution in the well that could not inhibit bacterial growth was turbid. The concentration corresponding to the well with a transparent solution was selected to be the minimum inhibitory concentration (MIC) of the sample.
For orientation: Broth dilution looks for growth in wells or tubes with falling amounts of substance.

Experiment [2] relates to Streptococcus pneumoniae ATCC 49169. In words: MIC by broth microdilution, Streptococcus pneumoniae. Conditions: for MIC: Streptococcus pneumoniae, ATCC49169, final compound (after hydrolysis), 96-well two-fold dilution, 37° C., 24 hours; for antibacterial effect on Streptococcus pneumoniae before versus after hydrolysis: before vs after hydrolysis. How it is done: as §1
Experiment [3] relates to Staphylococcus aureus ATCC 29737. In words: MIC by broth microdilution, Staphylococcus aureus. How it is done: (§2) The antibacterial activity of the tylosin derivative Ia and the antibacterial activity of the tylosin derivative Ib of the present invention were determined by using the broth microdilution method with tylosin as a positive control. A broth culture medium was added into a 96-well plate, a prepared compound solution was diluted in a trace two-fold decreasing concentration, and then was inoculated with an appropriate amount of bacterial solution. After incubation for 24 hours, the minimum inhibitory concentration of the compound was observed. The culture medium used in the experiment was CAMHB broth and CAMHB+5% defibrillated sheep blood broth. The preserved bacteria strain was inoculated into a serum plate medium and cultured at 37° C. for 16-18 hours. An appropriate amount of bacteria after the completion of subculture and saline were placed into a turbidimetric tube and calibrated to the McFarland standard with a McFarland turbidimeter. The bacterial suspension was diluted 10 times with saline to prepare test bacterial solutions of certain concentrations (5×10^5 to 5×10^6 cfu/mL) for later use. Tylosin and the compounds obtained in the examples were dissolved in methanol to the desired concentration of each compound (1.0 mg/mL), stored in sterilized brown vials, stoppered, and sealed for later use. […]

For experiment [4], the system named is Streptococcus agalactiae CVCC3940. The experiment is described as follows: MIC by broth microdilution, Streptococcus agalactiae. As for the experimental part: as §2

≈ marks a conversion by molar mass, not a printed value.

On to `CC[C@H]1OC(=O)C[C@@H](O)[C@H](C)[C@@H](O[C@@H]2O[C@H](C)[C@@H](O[C@H]3C[C@@](C)(O)[C@@H](O)[C@H](C)O3)[C@H](N(C)C)[C@H]2O)[C@@H](CC=O)C[C@@H](C)C(=O)/C=C/C(C)=C/[C@@H]1CO[C@@H]1O[C@H](C)[C@@H](O)[C@@H](OC)[C@H]1OC` [Tylosin], for which the results for the MIC in experiment [1] and in experiment [2] were 128 µg/mL (≈ 140 µM) and 0.781 µg/mL (≈ 0.853 µM), respectively.
Turning to `CC[C@H]1OC(=O)C[C@@H](O)[C@H](C)[C@@H](O[C@@H]2O[C@H](C)[C@@H](O)[C@H](N(C)C)[C@H]2O)[C@@H](CCN2CCC[C@@H]2CO)C[C@@H](C)C(=O)/C=C/C(C)=C/[C@@H]1CO[C@@H]1O[C@H](C)[C@@H](O)[C@@H](OC)[C@H]1OC` [Ib, 20-((R)-2-hydroxymethyltetrahydropyrrolyl)desmycosin], in experiment [1], the minimum inhibitory concentration (MIC) was determined as 64 µg/mL (≈ 74.7 µM) and the “antibacterial effect on Escherichia coli before versus after hydrolysis” value is “comparable”. The “in vitro antibacterial activity against Escherichia coli compared with tylosin” value in experiment [1] (compared with tylosin) was “higher in vitro antibacterial activity”. In experiment [2], the MIC is 0.098 µg/mL (≈ 0.114 µM), the “antibacterial effect on Streptococcus pneumoniae before versus after hydrolysis” value is reported as “doubled after the hydrolysis” and the “in vitro antibacterial activity against Streptococcus pneumoniae compared with tylosin” value is given as “higher in vitro antibacterial activity”.
For the compound `CC[C@H]1OC(=O)C[C@@H](O)[C@H](C)[C@@H](O[C@@H]2O[C@H](C)[C@@H](O)[C@H](N(C)C)[C@H]2O)[C@@H](CCNCCCO)C[C@@H](C)C(=O)/C=C/C(C)=C/[C@@H]1CO[C@@H]1O[C@H](C)[C@@H](O)[C@@H](OC)[C@H]1OC` [Ia, 20-(3-hydroxypropylamino)desmycosin], the MIC in experiment [1] worked out at 128 µg/mL (≈ 154 µM); in experiment [3] (Staphylococcus aureus, ATCC29737, after hydrolysis, 96-well two-fold dilution, 37° C., 24 hours), 0.781 µg/mL (≈ 0.94 µM); in experiment [4] (Streptococcus agalactiae, CVCC3940, after hydrolysis, 96-well two-fold dilution, 37° C., 24 hours), 1.56 µg/mL (≈ 1.88 µM); in experiment [2] it was 0.391 µg/mL (≈ 0.47 µM). Further, the “antibacterial effect on Escherichia coli before versus after hydrolysis” value in experiment [1] is “comparable”. Moreover, the “antibacterial activity against Staphylococcus aureus before versus after hydrolysis” value in experiment [3] (before vs after hydrolysis) is listed as “stronger after the hydrolysis”. In experiment [4] (before vs after hydrolysis), the “antibacterial activity against Streptococcus agalactiae before versus after hydrolysis” value is recorded as “stronger before the hydrolysis”. For the same compound, the “antibacterial effect on Streptococcus pneumoniae before versus after hydrolysis” value in experiment [2] was “comparable”. In addition, the “in vitro antibacterial activity against Streptococcus pneumoniae compared with tylosin” value in experiment [2] is “higher in vitro antibacterial activity”.

Usually MIC stands for the lowest concentration that inhibits growth of the organism. A lower MIC goes with greater potency.

Values taken from patent publication US20260116908A1, “TYLOSIN DERIVATIVE AND PREPARATION METHOD AND APPLICATION THEREOF” (Institute of Feed Research, Chinese Academy of Agricultural …, priority 2023, published 2026).
